Assay results as given in patent US7498347B2, “Hydroxycarbonylphenyl substituted 4-(aminomethyl)-piperidine benzamides as 5HT4 antagonists” (Janssen Pharmaceutica, N.V., priority 2004, dated 2009).
Where a name gives a salt, the structure may show the parent alone.

What was measured:
[1] = target: T1, h5-HT4b (Homo sapiens, UniProt Q13639); experiment: 5HT4 antagonism: [3H]GR113808 binding to membranes of h5-HT4b-HEK 293 clone 9 cells; conditions: displacement of [3H]GR113808 0.1 nM, h5-HT4b-HEK 293 membranes, 30 min at 25° C.; read-out: pIC50 (5HT4 antagonistic data) (converted)
T1 construct: expressed in transfected cells; host or cells: HEK 293 (clone 9), membrane preparation
Experimental: h5-HT4b-HEK 293 clone 9 cells were cultured in 150 mm Petri dishes and washed twice with cold PBS. The cells were then scraped from the plates and suspended in 50 mM Tris-HCl buffer, pH 7.4 and harvested by centrifugation at 23,500 rpm for 10 minutes. The pellet was resuspended in 5 mM Tris-HCl, pH 7.4 and homogenized with an Ultra Turrax homogenizer. The membranes were collected by centrifugation at 30,000 rpm for 20 min, resuspended in 50 mM Tris-HCl pH 7.4 and stored at −80° C. For the experiment, assay mixtures (0.5 ml) contained 50 μl of the tritiated ligand (5-HT4 antagonist [^3H]GR113808 0.1 nM) and 0.4 ml membrane preparation (15 μg protein/ml). 50 μl of 10% DMSO was added for total binding. 50 μl of 1 μM of (+)-trans-(1-butyl-3-hydroxy-4-piperidinyl)methyl 8-amino-7-chloro-2,3-dihydro-1,4-benzodioxin-5-carboxylate (a proprietary 5HT4 agonist of Janssen Pharmaceutica) was added for determination of non-specific binding.
The [^3H]GR113808 assay buffer was 50 mM HEPES-NaOH, pH 7.4. The mixtures were incubated for 30 min at 25° C. The incubation was terminated by filtration over a Unifilter 96 GF/B presoaked in 0.1% polyethylenimine, followed by six washing steps with 50 mM HEPES-NaOH, pH 7.4.

[2] = Metabolic stability in liver microsomes, LC-MS analysis; type: in vitro ADME; conditions: compound 5 μM, microsomes 1 mg/ml, NADPH-generating system, 60 minutes at 37 degrees Celsius
Experimental: Sub-cellular tissue preparations were made according to Gorrod et al. (Xenobiotica 5: 453-462, 1975) by centrifugal separation after mechanical homogenization of tissue. Liver tissue was rinsed in ice-cold 0.1 M Tris-HCl (pH 7.4) buffer to wash excess blood. Tissue was then blotted dry, weighed and chopped coarsely using surgical scissors. The tissue pieces were homogenized in 3 volumes of ice-cold 0.1 M phosphate buffer (pH 7.4).
Tissue homogenates were centrifuged at 9000×g for 20 minutes at 4° C. The resulting supernatant was stored at −80° C. and is designated ‘S9’.
The S9 fraction can be further centrifuged at 100.000×g for 60 minutes (4° C.). The resulting supernatant was carefully aspirated, aliquoted and designated ‘cytosol’. The pellet was re-suspended in 0.1 M phosphate buffer (pH 7.4) in a final volume of 1 ml per 0.5 g original tissue weight and designated ‘microsomes’.
All sub-cellular fractions were aliquoted, immediately frozen in liquid nitrogen and stored at −80° C. until use.
For the samples to be tested, the incubation mixture contained PBS (0.1M), compound (5 μM), microsomes (1 mg/ml) and a NADPH-generating system (0.8 mM glucose-6-phosphate, 0.8 mM magnesium chloride and 0.8 Units of glucose-6-phosphate dehydrogenase). Control samples contained the same material but the microsomes were replaced by heat inactivated (10 minutes at 95 degrees Celsius) microsomes. Recovery of the compounds in the control samples was always 100%.
The mixtures were preincubated for 5 minutes at 37 degrees Celsius. The reaction was started at time point zero (t=0) by addition of 0.8 mM NADP and the samples were incubated for 60 minutes (t=60). The reaction was terminated by the addition of 2 volumes of DMSO. Then the samples were centrifuged for 10 minutes at 900×g and the supernatants were stored at room temperature for no longer as 24 hours before analysis. All incubations were performed in duplo. Analysis of the supernatants was performed with LC-MS analysis. Elution of the samples was performed on a Xterra MS C18 (50×4.6 mm, 5 μm, Waters, US). An Alliance 2790 (Supplier: Waters, US) HPLC system was used. Elution was with buffer A (25 mM ammoniumacetate (pH 5.2) in H2O/acetonitrile (95/5)), solvent B being acetonitrile and solvent C methanol at a flow rate of 2.4 ml/min. The gradient employed was increasing the organic phase concentration from 0% over 50% B and 50% C in 5 min up to 100% B in 1 minute in a linear fashion and organic phase concentration was kept stationary for an additional 1.5 minutes. Total injection volume of the samples was 25 μl.
A Quatro triple quadrupole mass spectrometer fitted with and ESP source was used as detector. The source and the desolvation temperature were set at 120 and 350° C. respectively and nitrogen was used as nebuliser and drying gas. Data were acquired in positive scan mode (single ion reaction). Cone voltage was set at 10 V and the dwell time was 1 second.
Metabolic stability was expressed as % metabolism of the compound after 60 minutes (equation given as example) of incubation in the presence of active microsomes (E(act))

T1 sequence (Q13639 whole entry): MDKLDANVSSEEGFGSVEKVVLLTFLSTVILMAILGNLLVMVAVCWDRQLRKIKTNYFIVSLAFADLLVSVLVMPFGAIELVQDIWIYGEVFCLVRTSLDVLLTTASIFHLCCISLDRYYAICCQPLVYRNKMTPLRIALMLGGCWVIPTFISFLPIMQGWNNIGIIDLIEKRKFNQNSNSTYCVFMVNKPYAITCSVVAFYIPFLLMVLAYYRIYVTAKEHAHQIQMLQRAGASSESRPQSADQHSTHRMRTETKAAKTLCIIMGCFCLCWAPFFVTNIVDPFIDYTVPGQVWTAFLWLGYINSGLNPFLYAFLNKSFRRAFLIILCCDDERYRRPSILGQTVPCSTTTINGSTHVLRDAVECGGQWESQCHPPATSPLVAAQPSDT

Compound	melting point	IC50 [1]	% metabolized (% metabolised compound after 60 minutes) [2]
O=C(O)c1ccc(OCCCN2CCC(CNC(=O)c3cc(Cl)c(Cl)c4c3OCCCO4)C(O)C2)cc1 (stereo not shown) (as salt: HCl) [compound 16]	256 °C	–	–
Cc1ccc(C(=O)NC[C@@H]2CCN(CCOc3ccc(C(=O)O)cc3)C[C@H]2O)c2c1OCCCO2 (hydrate or solvate) [compound 8]	> 120 °C	–	–
O=C(O)c1ccc(OCCCN2CC[C@@H](CNC(=O)c3cc(Cl)c(Br)c4c3OCCCO4)[C@H](O)C2)cc1 (relative stereo) (as salt: HCl) (hydrate or solvate) [compound 17]	268 °C	–	–
O=C(O)c1ccccc1OCCCN1CC[C@@H](CNC(=O)c2cc(Cl)cc3c2OCCCO3)[C@H](O)C1 (relative stereo) [compound 7]	148 °C	79.4 nM	14%
Cc1cc2c(c(C(=O)NC[C@@H]3CCN(CCCOc4ccc(C(=O)O)cc4)C[C@H]3O)c1)OCCCO2 (relative stereo) [compound 13]	118 °C	20.9 nM	–
O=C(O)c1ccc(OCCCN2CC[C@@H](CNC(=O)c3cc(Cl)c(Br)c4c3OCCCO4)[C@H](O)C2)cc1 (relative stereo) [compound 17]	–	5.62 nM	6%
CO[C@@H]1CN(CCCOc2ccc(C(=O)O)cc2)CC[C@H]1CNC(=O)c1cc(Cl)c(Cl)c2c1OCCCO2 (relative stereo) [compound 20]	200 °C	7.76 nM	–
Cc1cc2c(c(C(=O)NC[C@@H]3CCN(CCCOc4ccccc4C(=O)O)C[C@H]3O)c1)OCCCO2 [Co. No. 1]	114 °C	–	–
Cc1cc2c(c(C(=O)NC[C@@H]3CCN(CCCOc4ccccc4C(=O)O)C[C@H]3O)c1)OCCCO2 [compound 1]	–	120 nM	–
Cc1cc2c(c(C(=O)NC[C@@H]3CCN(CCCCOc4ccc(C(=O)O)cc4)C[C@H]3O)c1)OCCCO2 [compound 2]	188 °C	9.55 nM	6%
Cc1ccc(C(=O)NC[C@@H]2CCN(CCCCOc3ccc(C(=O)O)cc3)C[C@H]2O)c2c1OCCCO2 [compound 3]	170 °C	4.9 nM	16%
O=C(O)c1ccc(OCCN2CC[C@@H](CNC(=O)c3cc(Cl)cc4c3OCCCO4)[C@H](O)C2)cc1 [compound 4]	220 to 225 °C	14.5 nM	–
O=C(O)c1ccc(OCCCCN2CC[C@@H](CNC(=O)c3cc(Cl)cc4c3OCCCO4)[C@H](O)C2)cc1 [compound 5]	190 °C	5.13 nM	15%
Cc1cc2c(c(C(=O)NC[C@@H]3CCN(CCOc4ccc(C(=O)O)cc4)C[C@H]3O)c1)OCCCO2 [compound 6]	175 °C	63.1 nM	–
Cc1ccc(C(=O)NC[C@@H]2CCN(CCOc3ccc(C(=O)O)cc3)C[C@H]2O)c2c1OCCCO2 [compound 8]	–	42.7 nM	–
O=C(O)c1ccc(OCCCN2CCC(CNC(=O)c3cc(Cl)cc4c3OCCCO4)C(O)C2)cc1 (stereo not shown) [compound 9]	122 °C	11.2 nM	7.5%
Cc1ccc(C(=O)NC[C@@H]2CCN(CCCOc3cccc(C(=O)O)c3)C[C@H]2O)c2c1OCCCO2 [compound 11]	120 °C	8.51 nM	1%
Cc1cc2c(c(C(=O)NCC3CCN(CCCOc4cccc(C(=O)O)c4)CC3O)c1)OCCCO2 (stereo not shown) [compound 12]	122 °C	23.4 nM	0%
Cc1ccc(C(=O)NC[C@@H]2CCN(CCCOc3ccc(C(=O)O)cc3)C[C@H]2O)c2c1OCCCO2 [compound 14]	155 °C	8.71 nM	0%
O=C(O)c1ccc(OCCCN2CCC(CNC(=O)c3cc(Cl)c(Cl)c4c3OCCCO4)C(O)C2)cc1 (stereo not shown) [compound 16]	–	7.59 nM	3%
COc1ccc(C(=O)NCC2CCN(CCCOc3ccc(C(=O)O)cc3)CC2OC)c2c1OCCCO2 (stereo not shown) [compound 21]	179.4 to 189.2 °C	66.1 nM	–
COC1CN(CCCOc2ccc(C(=O)O)cc2)CCC1CNC(=O)c1cc(C)cc2c1OCCCO2 (stereo not shown) [compound 22]	–	13.5 nM	6%
